ChEMBL document CHEMBL1201862, “PubChem BioAssay data set” (2004)
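A five-concentration, 48-hour dose response in 96-well plates underlies each endpoint, interpolated linearly between surrounding concentrations. Here, GI50 denotes the concentration required for 50% inhibition of growth.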 Active and inactive are the calls of the source. Cut-off read from the data, not from the text of the source: active = GI50 up to about 1.1 µM and inactive = higher.

Experiments:
Assay in all cases: DTP human tumour cell line panel, 48 h
BT-549 = tested on: BT-549
CAKI-1 = tested on: CAKI-1
CCRF-CEM = tested on: CCRF-CEM
HCC 2998 = tested on: HCC 2998
HCT-116 = tested on: HCT-116
HOP-62 = tested on: HOP-62
HT-29 = tested on: HT-29
K562 = tested on: K562
M14 = tested on: M14
MOLT-4 = tested on: MOLT-4
OVCAR-5 = tested on: OVCAR-5
RPMI-8226 = tested on: RPMI-8226
RXF 393 = tested on: RXF 393
SF-268 = tested on: SF-268
SK-MEL-2 = tested on: SK-MEL-2
SN12C = tested on: SN12C
SNB-19 = tested on: SNB-19
UACC-62 = tested on: UACC-62
Malme-3M = tested on: Malme-3M

SMILES	GI50 (BT-549)	GI50 (CAKI-1)	GI50 (CCRF-CEM)	GI50 (HCC 2998)	GI50 (HCT-116)	GI50 (HOP-62)	GI50 (HT-29)	GI50 (K562)	GI50 (M14)	GI50 (MOLT-4)	GI50 (OVCAR-5)	GI50 (RPMI-8226)	GI50 (RXF 393)	GI50 (SF-268)	GI50 (SK-MEL-2)	GI50 (SN12C)	GI50 (SNB-19)	GI50 (UACC-62)	GI50 (Malme-3M)
O=C1CC(=O)N(C2CCCCC2)C(=O)N1c1ccccc1S(=O)(=O)Oc1ccccc1	49.5 µM (inactive)	> 100 µM (inactive)	14.9 µM (inactive)	> 100 µM (inactive)	> 100 µM (inactive)	33 µM (inactive)	> 100 µM (inactive)	26.9 µM (inactive)	> 100 µM (inactive)	19.2 µM (inactive)	> 100 µM (inactive)	26.5 µM (inactive)	> 100 µM (inactive)	90.6 µM (inactive)	> 100 µM (inactive)	> 100 µM (inactive)	> 100 µM (inactive)	> 100 µM (inactive)	
CN1C(=O)c2c(c3c4ccccc4n(C)c3c3c2c2ccccc2n3C)C1=O	> 100 µM (inactive)	> 100 µM (inactive)	> 100 µM (inactive)	> 100 µM (inactive)	> 100 µM (inactive)	> 100 µM (inactive)	> 100 µM (inactive)	> 100 µM (inactive)	> 100 µM (inactive)	> 100 µM (inactive)	> 100 µM (inactive)	> 100 µM (inactive)			> 100 µM (inactive)	> 100 µM (inactive)	> 100 µM (inactive)	> 100 µM (inactive)	> 100 µM (inactive)
CSc1nc(Cl)c2c(n1)Sc1nc3cc4c(cc3n1C2O)OCCO4 (stereo not drawn)	0.489 µM (active)		0.0246 µM (active)	0.318 µM (active)	0.0146 µM (active)	0.419 µM (active)	0.0226 µM (active)	0.0318 µM (active)	0.0951 µM (active)	0.0348 µM (active)	4.03 µM (inactive)	0.0318 µM (active)	0.354 µM (active)	0.459 µM (active)	0.923 µM (active)	0.526 µM (active)	0.344 µM (active)	0.125 µM (active)	0.847 µM (active)
COc1ccc(-n2c(N)c(C#N)c(C#N)c2-c2ccco2)cc1	9.23 µM (inactive)	> 100 µM (inactive)	> 100 µM (inactive)	> 100 µM (inactive)	> 100 µM (inactive)	72.1 µM (inactive)	> 100 µM (inactive)	59.7 µM (inactive)	> 100 µM (inactive)	46.7 µM (inactive)	> 100 µM (inactive)	> 100 µM (inactive)	> 100 µM (inactive)	> 100 µM (inactive)	> 100 µM (inactive)	> 100 µM (inactive)	> 100 µM (inactive)	38.5 µM (inactive)	> 100 µM (inactive)
Cc1nc(O)nc(NNCc2ccc(Cl)cc2)c1C(=O)Nc1ccc(Cl)cc1	> 100 µM (inactive)	> 100 µM (inactive)	> 100 µM (inactive)	> 100 µM (inactive)	> 100 µM (inactive)	> 100 µM (inactive)			> 100 µM (inactive)	> 100 µM (inactive)	> 100 µM (inactive)	> 100 µM (inactive)	> 100 µM (inactive)		> 100 µM (inactive)	> 100 µM (inactive)	> 100 µM (inactive)	3.69 µM (inactive)	> 100 µM (inactive)
CCCCC1C(=O)N(c2ccc(S(=O)(=O)Nc3ccccn3)cc2)N(c2ccc(O)c(C(=O)O)c2)C1=O (stereo not drawn)	> 100 µM (inactive)	> 100 µM (inactive)	> 100 µM (inactive)	> 100 µM (inactive)	> 100 µM (inactive)		> 100 µM (inactive)	> 100 µM (inactive)	> 100 µM (inactive)	> 100 µM (inactive)	> 100 µM (inactive)	> 100 µM (inactive)	> 100 µM (inactive)	> 100 µM (inactive)	> 100 µM (inactive)	> 100 µM (inactive)	> 100 µM (inactive)	> 100 µM (inactive)	> 100 µM (inactive)
CCOC(=O)/C(C(=O)Nc1ccc(F)cc1)=C(/N)N1CCCC1	92.9 µM (inactive)	> 100 µM (inactive)	> 100 µM (inactive)	> 100 µM (inactive)	> 100 µM (inactive)	> 100 µM (inactive)	> 100 µM (inactive)	> 100 µM (inactive)	> 100 µM (inactive)	> 100 µM (inactive)	> 100 µM (inactive)	> 100 µM (inactive)	> 100 µM (inactive)	> 100 µM (inactive)	> 100 µM (inactive)	> 100 µM (inactive)	> 100 µM (inactive)	> 100 µM (inactive)	> 100 µM (inactive)
O=c1[nH]c(=O)c2c([nH]1)[nH]c1ccc(Br)cc12	> 100 µM (inactive)	> 100 µM (inactive)	82.2 µM (inactive)	28 µM (inactive)	> 100 µM (inactive)	> 100 µM (inactive)	> 100 µM (inactive)		> 100 µM (inactive)		> 100 µM (inactive)	79.6 µM (inactive)	> 100 µM (inactive)	97.1 µM (inactive)	> 100 µM (inactive)	> 100 µM (inactive)	> 100 µM (inactive)	> 100 µM (inactive)	> 100 µM (inactive)
CCOC(=O)c1sc2nc(SC)nc(Nc3ccc4c(c3)OCO4)c2c1N	33.7 µM (inactive)	> 100 µM (inactive)	50.7 µM (inactive)	> 100 µM (inactive)	> 100 µM (inactive)	28.8 µM (inactive)		81.1 µM (inactive)	41.9 µM (inactive)	> 100 µM (inactive)	> 100 µM (inactive)	53.8 µM (inactive)	10.9 µM (inactive)		68.4 µM (inactive)	59 µM (inactive)	54.7 µM (inactive)	25.1 µM (inactive)	29.6 µM (inactive)
CN1C(=O)N(C)C(O)C(Cl)(Br)C1=O (stereo not drawn)	> 100 µM (inactive)	> 100 µM (inactive)	> 100 µM (inactive)	> 100 µM (inactive)	> 100 µM (inactive)		> 100 µM (inactive)	> 100 µM (inactive)	> 100 µM (inactive)	> 100 µM (inactive)	0.182 µM (active)	> 100 µM (inactive)	> 100 µM (inactive)	> 100 µM (inactive)	> 100 µM (inactive)	> 100 µM (inactive)	> 100 µM (inactive)	> 100 µM (inactive)	> 100 µM (inactive)
CN(C)CC1CCC/C(=C\c2ccc(N(C)C)cc2)C1=O (stereo not drawn)	16.2 µM (inactive)	1.8 µM (inactive)	> 100 µM (inactive)	15.9 µM (inactive)	3.15 µM (inactive)	18.8 µM (inactive)	2 µM (inactive)	28.1 µM (inactive)	3.55 µM (inactive)	4.97 µM (inactive)	13.9 µM (inactive)	> 100 µM (inactive)	8.13 µM (inactive)	1.78 µM (inactive)	10.2 µM (inactive)	16.1 µM (inactive)	17.7 µM (inactive)	15.8 µM (inactive)	12.1 µM (inactive)
Cn1c(-c2ccccc2)cc(-c2ccc3c(c2)OCO3)c1-c1ccsc1	> 100 µM (inactive)	> 100 µM (inactive)	> 100 µM (inactive)	> 100 µM (inactive)	> 100 µM (inactive)	> 100 µM (inactive)	> 100 µM (inactive)	> 100 µM (inactive)	> 100 µM (inactive)	> 100 µM (inactive)	> 100 µM (inactive)	> 100 µM (inactive)	> 100 µM (inactive)	> 100 µM (inactive)	> 100 µM (inactive)	> 100 µM (inactive)	> 100 µM (inactive)	> 100 µM (inactive)	
CC(Br)C(=O)c1ccc2cc(Br)c3ccccc3c2c1 (stereo not drawn)	15.1 µM (inactive)	16.1 µM (inactive)	2.45 µM (inactive)	15.7 µM (inactive)	15.2 µM (inactive)	17.2 µM (inactive)	17.1 µM (inactive)	4.18 µM (inactive)	16.1 µM (inactive)		17 µM (inactive)	4.65 µM (inactive)	15.4 µM (inactive)	16.3 µM (inactive)	13.2 µM (inactive)	7.01 µM (inactive)	17.4 µM (inactive)	15.4 µM (inactive)	15.1 µM (inactive)
CCOC(=O)c1csc(-c2cn(C)c3c2C(=O)C(OC)=CC3=O)n1	> 40.3 µM (inactive)	> 91.2 µM (inactive)	72.8 µM (inactive)	23.8 µM (inactive)	18.3 µM (inactive)	23.2 µM (inactive)	48.2 µM (inactive)	21.6 µM (inactive)	14 µM (inactive)	> 100 µM (inactive)	31.1 µM (inactive)	9.53 µM (inactive)	23.6 µM (inactive)	> 62.5 µM (inactive)	21.7 µM (inactive)	> 75.2 µM (inactive)	14.2 µM (inactive)	21.2 µM (inactive)	
CC(C)=CCC/C(C)=C/Cc1cc(/C=C/c2cc(O)c(CC=C(C)C)c(O)c2)cc(O)c1O [MAPPAIN]	3.29 µM (inactive)	5.42 µM (inactive)		2.13 µM (inactive)	3.37 µM (inactive)	11.4 µM (inactive)	4.18 µM (inactive)	2.49 µM (inactive)	4.26 µM (inactive)	1.93 µM (inactive)	4.36 µM (inactive)	0.506 µM (active)	2.46 µM (inactive)	2.64 µM (inactive)	2.77 µM (inactive)	1.95 µM (inactive)	4.5 µM (inactive)	2.7 µM (inactive)	6.38 µM (inactive)
